Experimental data taken from ChEMBL document CHEMBL2074520, “Characterization of the high-affinity monocarboxylate transporter MCT2 in Xenopus laevis oocytes” (Biochem J, 1999).

T1: Monocarboxylate transporter 1 (Rattus norvegicus, UniProt P53987)
T1 sequence (P53987 whole entry): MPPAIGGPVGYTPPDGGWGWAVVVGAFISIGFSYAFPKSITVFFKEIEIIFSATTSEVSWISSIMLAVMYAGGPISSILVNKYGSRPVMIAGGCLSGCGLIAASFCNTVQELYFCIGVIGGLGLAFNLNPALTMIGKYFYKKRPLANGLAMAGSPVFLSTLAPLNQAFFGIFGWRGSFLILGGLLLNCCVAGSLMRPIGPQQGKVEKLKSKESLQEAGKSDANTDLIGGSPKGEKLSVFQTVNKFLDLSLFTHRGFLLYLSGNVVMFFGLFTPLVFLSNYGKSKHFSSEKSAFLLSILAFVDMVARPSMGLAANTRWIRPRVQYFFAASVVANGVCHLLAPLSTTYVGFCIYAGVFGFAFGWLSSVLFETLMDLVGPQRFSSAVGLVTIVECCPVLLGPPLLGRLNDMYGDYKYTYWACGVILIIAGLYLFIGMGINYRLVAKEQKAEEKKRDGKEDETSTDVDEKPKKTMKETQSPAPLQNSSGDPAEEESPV

T2: Monocarboxylate transporter 2 (Rattus norvegicus, UniProt Q63344)
T2 sequence (Q63344 whole entry): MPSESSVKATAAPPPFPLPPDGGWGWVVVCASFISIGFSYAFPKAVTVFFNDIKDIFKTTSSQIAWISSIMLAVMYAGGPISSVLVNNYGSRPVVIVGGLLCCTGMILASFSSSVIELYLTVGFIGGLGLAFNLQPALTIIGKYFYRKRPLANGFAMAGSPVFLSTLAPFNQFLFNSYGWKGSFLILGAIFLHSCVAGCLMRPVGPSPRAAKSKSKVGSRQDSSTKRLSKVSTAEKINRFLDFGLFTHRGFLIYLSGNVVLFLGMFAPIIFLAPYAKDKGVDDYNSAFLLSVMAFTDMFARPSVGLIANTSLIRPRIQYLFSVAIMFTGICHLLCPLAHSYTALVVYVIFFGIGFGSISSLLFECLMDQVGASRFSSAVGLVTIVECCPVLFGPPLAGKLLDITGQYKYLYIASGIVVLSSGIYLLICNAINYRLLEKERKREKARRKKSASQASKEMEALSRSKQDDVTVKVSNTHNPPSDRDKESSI

T3: Monocarboxylate transporter 1 (Rattus norvegicus) (UniProt P53987)
T3 sequence (whole entry): T1 sequence (P53987 whole entry)

T4: Monocarboxylate transporter 2 (Rattus norvegicus) (UniProt Q63344)
T4 sequence (whole entry): T2 sequence (Q63344 whole entry)

B1: Monocarboxylate transporter 2 (Rattus norvegicus), Q63344 (protein)
chain: T2 sequence (Q63344 whole entry)

Columns and labels:
[1] = target: T1, Monocarboxylate transporter 1; assay: (§1) TP_TRANSPORTER: inhibition of lactate uptake in Xenopus laevis oocytes; format: functional, cell-based, Oocyte
[2] = target: T2, Monocarboxylate transporter 2; assay: as §1; format: functional, cell-based, Oocyte
[3] = target: T3, Monocarboxylate transporter 1 (Rattus norvegicus); assay: as §1; format: functional, cell-based; set-up: concentration or dose not given beside the values; conditions: Oocyte
[4] = target: T4, Monocarboxylate transporter 2 (Rattus norvegicus); assay: as §1; format: functional, cell-based; set-up: concentration or dose not given beside the values; conditions: Oocyte
[5] = target: Monocarboxylate transporter 2 (Rattus norvegicus) (UniProt Q63344); assay: as §1; format: functional, cell-based; set-up: concentration or dose not given beside the values; conditions: Oocyte; remark: listed apart in the source
[6] = target: Monocarboxylate transporter 1 (Rattus norvegicus) (UniProt P53987); assay: as §1; format: functional, cell-based; set-up: concentration or dose not given beside the values; conditions: Oocyte; remark: listed apart in the source
[7] = compound: C[C@@H](O)C(=O)O; assay: as §1; format: functional, cell-based; conditions: Oocyte

Row | Molecule | Activity [3] [%] | Activity [4] [%] | other results
1 | CCc1oc2ccccc2c1C(=O)c1cc(Br)c(O)c(Br)c1 [BENZBROMARONE] | 19 | 12 | IC50 [1]: 22 µM; IC50 [2]: 9 µM
2 | O=c1c(O)c(-c2ccc(O)c(O)c2)oc2cc(O)cc(O)c12 [QUERCETIN] | 11 | 17 | IC50 [1]: 14 µM; IC50 [2]: 5 µM
3 | CC(=O)C(=O)O [PYRUVATE] | – | – | Ki [2]: 80 µM
4 | O=C(O)c1cccnc1Nc1cccc(C(F)(F)F)c1 | 36 | 14 | –
5 | CC(C)CC(=O)C(=O)O [2-Oxoisohexanoate] | – | – | Ki [2]: 100 µM
6 | O=C(O)c1cc([N+](=O)[O-])ccc1NCCCc1ccccc1 | 54 | 25 | –
7 | CC(=O)CC(=O)O [ACETOACETIC ACID] | – | – | Ki [2]: 800 µM
8 | CC(=O)Oc1ccccc1O | 92 | 105 | –
9 | CC(C)C(=O)C(=O)O [2-Oxoisovalerate] | – | – | Ki [2]: 300 µM
10 | O=C(CCc1ccc(O)cc1)c1c(O)cc(O)cc1O [PHLORETIN] | 14 | 3 | IC50 [1]: 28 µM; IC50 [2]: 14 µM
11 | O=C(O)C(O)c1ccccc1 (stereo not drawn) | 97 | 117 | –
12 | CCCCCC#CCC#CCC#CCC#CCCCC(=O)O | 117 | 125 | –
13 | CCCN(CCC)S(=O)(=O)c1ccc(C(=O)O)cc1 | 110 | 88 | –
14 | c1ccc(CSSCc2ccccc2)cc1 | 99 | 44 | –
15 | O=[N+]([O-])c1ccc(/C=C/c2ccc([N+](=O)[O-])cc2S(=O)(=O)O)c(S(=O)(=O)O)c1 | 112 | 119 | –
16 | O=C(O)CC12CC3CC(CC(C3)C1)C2 | 96 | 113 | –
17 | CC(O)CC(=O)O (racemic) [3-HYDROXYBUTYRIC ACID, (+/-)-] | – | – | Ki [2]: 1200 µM
18 | MERCURIC CHLORIDE | – | – | Activity [5]: 54%; Activity [6]: 37%
19 | O=C(O)c1c2ccccc2cc2ccccc12 | 102 | 104 | –
20 | N#C/C(=C\c1ccc(O)cc1)C(=O)O [alpha-CYANO-4-HYDROXYCINNAMIC ACID] | 74.4 | 34 | IC50 [1]: 425 µM; IC50 [2]: 24 µM
21 | p-Chloromercuribenzenesulfonate | – | – | Activity [5]: 118%; Activity [6]: 9%
22 | O=C(O)c1ccc(-c2ccccc2)cc1 | 88 | 74 | –
23 | B1 | – | – | Km [7]: 740 µM
